Experimental findings from PubChem BioAssay (NCI) are described below.

Each structure is given as a SMILES string. Several values for one entry are separate records, joined by “and”; a condition that tells them apart may be missing. Equal entries are not always repeated.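 Following 48 hours of exposure in 96-well plates, responses at five concentrations were used to interpolate endpoints linearly. Abbreviation: GI50, concentration required for 50% inhibition of growth. TGI is the concentration that stops growth completely.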

Among the test systems are CAKI-1 renal; U251 CNS; OVCAR-4 ovarian; SN12C renal; HCT-15 colon; K-562 leukemia; CCRF-CEM leukemia; SK-MEL-2 melanoma; HOP-92 NSCLC; HOP-62 NSCLC.
Holding throughout (experiment): NCI tumour cell line growth inhibition, 48 h

For `COc1cc2c(N3CCN(C(=O)Nc4ccc(OC(C)C)cc4)CC3)ncnc2cc1OCCCN1CCCCC1`, the GI50 was 17.4 µM in the assay with CAKI-1 renal; 14 µM in the assay with U251 CNS; 14.4 µM in the assay on OVCAR-4 ovarian; 14.9 µM with SN12C renal; 16.7 µM in the assay on HCT-15 colon; 4.98 µM with K-562 leukemia. Besides, the GI50 in the assay on CCRF-CEM leukemia is 18.3 µM; with SK-MEL-2 melanoma it was 15.6 µM; in the assay with HOP-92 NSCLC, 6.24 µM; with HOP-62 NSCLC, 14.4 µM. In addition, the TGI is more than 54.9 µM with CAKI-1 renal; 41.8 µM with U251 CNS; 53.9 µM in the assay with OVCAR-4 ovarian; 88 µM in the assay on SN12C renal; 36.1 µM with HCT-15 colon; more than 100 µM in the assay on K-562 leukemia. Moreover, the TGI is more than 79.3 µM in the assay on CCRF-CEM leukemia, 32.3 µM in the assay with SK-MEL-2 melanoma, 33.1 µM in the assay on HOP-92 NSCLC and 34.2 µM with HOP-62 NSCLC.

Regarding `O=C1NC2=C(CCCCC/C2=N\O)C12CCCCCC2`, the TGI in the assay on CAKI-1 renal, with U251 CNS, in the assay with OVCAR-4 ovarian, with SN12C renal, with HCT-15 colon and in the assay on K-562 leukemia was more than 100 µM each time. In addition, the TGI in the assay with CCRF-CEM leukemia, in the assay on SK-MEL-2 melanoma, in the assay on HOP-92 NSCLC and with HOP-62 NSCLC was more than 100 µM in each case.

As to `N#Cc1nc2c(S(=O)(=O)c3ccc(Cl)cc3)c(N)n(Nc3cccc(Cl)c3)c2nc1C#N`, the GI50 is 0.0311 µM in the assay with CAKI-1 renal; 0.0294 µM in the assay on U251 CNS; 0.0166 µM in the assay on OVCAR-4 ovarian; 0.033 µM in the assay with SN12C renal; 0.0982 µM in the assay on HCT-15 colon; 0.0309 µM with K-562 leukemia. Moreover, the GI50 was 0.0101 µM with CCRF-CEM leukemia; 0.105 µM and 0.0126 µM with SK-MEL-2 melanoma; 0.109 µM in the assay on HOP-62 NSCLC. Besides, the TGI is more than 100 µM with HCT-15 colon; 0.387 µM and 0.0857 µM in the assay on SK-MEL-2 melanoma; 0.099 µM in the assay with HOP-92 NSCLC.

As to `CC1(C)OC[C@@H]([C@@]2(CO[Si](c3ccccc3)(c3ccccc3)C(C)(C)C)CC=CC(=O)O2)O1`, the GI50 was 25.9 µM in the assay with CAKI-1 renal; 5.94 µM with U251 CNS; 16.1 µM in the assay with OVCAR-4 ovarian; 5.39 µM with SN12C renal; 5.86 µM in the assay with HCT-15 colon; 3.91 µM in the assay on K-562 leukemia. Besides, the GI50 in the assay on CCRF-CEM leukemia was 6.63 µM; with SK-MEL-2 melanoma it was 6.23 µM; in the assay with HOP-92 NSCLC, 6.72 µM; in the assay with HOP-62 NSCLC, 31.5 µM. The TGI in the assay on CAKI-1 renal is more than 100 µM; with U251 CNS, 25.4 µM; with OVCAR-4 ovarian, more than 100 µM; in the assay with SN12C renal, 35.9 µM; in the assay with HCT-15 colon it was 58.6 µM; with K-562 leukemia, more than 100 µM. Moreover, the TGI in the assay with CCRF-CEM leukemia is more than 100 µM; with SK-MEL-2 melanoma, more than 100 µM; with HOP-92 NSCLC, 26.2 µM; in the assay with HOP-62 NSCLC, 60.9 µM.

In the case of `Cc1nc(N)nc(CCC(=O)Nc2cccc(C(F)(F)F)c2)c1-c1ccc(Cl)cc1`, the TGI with CAKI-1 renal, with U251 CNS, in the assay with OVCAR-4 ovarian, in the assay with SN12C renal, with HCT-15 colon and in the assay on K-562 leukemia was more than 100 µM throughout. In addition, the TGI with CCRF-CEM leukemia, in the assay with SK-MEL-2 melanoma, in the assay on HOP-92 NSCLC and in the assay with HOP-62 NSCLC was more than 100 µM each time.

On to `COc1cc(CNc2nc3cc(N)cc(N)c3nc2-c2ccccc2)cc(OC)c1`, for which the GI50 with CAKI-1 renal is 16 µM; in the assay with U251 CNS, 5.08 µM; in the assay on OVCAR-4 ovarian, 0.014 µM; in the assay with SN12C renal it was 11.4 µM; with HCT-15 colon it was 19.3 µM; with K-562 leukemia, 3.6 µM. Moreover, the GI50 was 1.72 µM in the assay on CCRF-CEM leukemia, 7.77 µM with SK-MEL-2 melanoma, 1.15 µM with HOP-92 NSCLC and 13.5 µM in the assay on HOP-62 NSCLC. Also, the TGI was more than 100 µM in the assay with CAKI-1 renal; more than 100 µM in the assay with U251 CNS; 0.974 µM in the assay on OVCAR-4 ovarian; more than 100 µM in the assay on SN12C renal; more than 100 µM in the assay on HCT-15 colon; 9.23 µM in the assay with K-562 leukemia. Moreover, the TGI in the assay with CCRF-CEM leukemia came out at 5.68 µM; in the assay on SK-MEL-2 melanoma, 41 µM; in the assay on HOP-92 NSCLC it was 3.31 µM; in the assay on HOP-62 NSCLC it was 31.3 µM.

Consider `CCc1cccc(C)c1NC(=O)CCc1nc(=S)[nH][nH]1`, for which the TGI with CAKI-1 renal, in the assay with U251 CNS, with OVCAR-4 ovarian, with SN12C renal, with HCT-15 colon and in the assay on K-562 leukemia was more than 100 µM each time. Further, the TGI in the assay with CCRF-CEM leukemia, in the assay with SK-MEL-2 melanoma, in the assay on HOP-92 NSCLC and with HOP-62 NSCLC was more than 100 µM throughout.

`O=C1/C(=C\c2ccccc2)CN(C(=O)CCN2CCCCC2)C/C1=C/c1ccccc1`: the TGI in the assay on CAKI-1 renal was 3.74 µM; in the assay with U251 CNS, 1.86 µM; in the assay with OVCAR-4 ovarian, 4.34 µM; with SN12C renal, 2.48 µM; in the assay on HCT-15 colon, 4.12 µM; in the assay on K-562 leukemia, 0.799 µM. Further, the TGI with CCRF-CEM leukemia was determined as 0.866 µM; in the assay on SK-MEL-2 melanoma, 4.44 µM; with HOP-92 NSCLC it was 10.2 µM; in the assay with HOP-62 NSCLC, 25.7 µM.

For the compound `OCc1cc2c(cn1)[nH]c1ccc(NCc3ccccc3)cc12`, the TGI in the assay with CAKI-1 renal, in the assay on U251 CNS, with OVCAR-4 ovarian, in the assay with SN12C renal, in the assay with HCT-15 colon and in the assay on K-562 leukemia was more than 100 µM in each case. The TGI was 64.7 µM in the assay with CCRF-CEM leukemia, more than 100 µM with SK-MEL-2 melanoma, 57.3 µM in the assay with HOP-92 NSCLC and more than 100 µM with HOP-62 NSCLC.

On to `c1ccc(-c2[nH]ncc2-c2ccnc(-c3ccc(OCCn4ccnc4)cc3)c2)nc1`, for which the GI50 was more than 25 µM with CAKI-1 renal; more than 25 µM with U251 CNS; 16.1 µM with OVCAR-4 ovarian; more than 25 µM in the assay on SN12C renal; 22 µM with HCT-15 colon; 6.44 µM with K-562 leukemia. Also, the GI50 in the assay with CCRF-CEM leukemia is 17.3 µM; with SK-MEL-2 melanoma, more than 25 µM; with HOP-92 NSCLC, more than 25 µM; with HOP-62 NSCLC, more than 25 µM. The TGI in the assay with CAKI-1 renal, in the assay on U251 CNS, in the assay with OVCAR-4 ovarian, with SN12C renal, in the assay on HCT-15 colon and in the assay with K-562 leukemia was more than 25 µM each time. Further, the TGI with CCRF-CEM leukemia, in the assay on SK-MEL-2 melanoma, in the assay on HOP-92 NSCLC and in the assay with HOP-62 NSCLC was more than 25 µM in each case.
